Assay results reported in ChEMBL document CHEMBL1139625, “Synthesis and binding affinity of novel 3-aminoethyl-1-tetralones, potential atypical antipsychotics” (Bioorg Med Chem Lett, 2005).

Assays:
[1] = Ratio of inhibitory constant for 5-hydroxytryptamine 2A receptor to that of dopamine receptor D2
[2] = Inhibitory constant towards 5-hydroxytryptamine 2A receptor (5-HT2A)
[3] = Inhibitory constant towards 5-hydroxytryptamine 2C receptor (5-HT2C)
[4] = Inhibitory constant towards dopamine D2 receptor was determined

Structure (SMILES)	Ratio [1]	Log Ki [2]	Log Ki [3]	Log Ki [4]
COc1ccc2c(c1)C(=O)CC(CCN1CCN(c3ccccc3OC)CC1)C2 (centres undefined)	1.01	-6.65	-5.72	-6.55
COc1ccc2c(c1)C(=O)CC(CCN1CCC(c3noc4cc(F)ccc34)CC1)C2 (centres undefined)	1.17	-8.23	-6.89	-7.04
COc1ccc2c(c1)C(=O)CC(CCN1CCN(c3ccccn3)CC1)C2 (centres undefined)		-6.33	-5.81	< -5
COc1ccc2c(c1)C(=O)CC(CCN1CCC3(CC1)NC(=O)NC3=O)C2 (centres undefined)		-5.98	-6.9	< -5
COc1ccccc1N1CCN(CCC2CC(=O)c3ccccc3C2)CC1 (centres undefined)	0.95	-6.59	-6.35	-6.97
CN1CCN(C2=Nc3cc(Cl)ccc3Nc3ccccc32)CC1 [CLOZAPINE]				-6.65
COc1ccc2c(c1)C(=O)CC(CCN1CCC3(CC1)NCNC3=O)C2 (centres undefined)		< -5	< -5	< -5
COc1cc2c(cc1OC)C(=O)CC(CN1CCC(c3noc4cc(F)ccc34)CC1)C2 (centres undefined)	1.18	-8.02		
COc1ccc2c(c1)CC(CN1CCC(c3noc4cc(F)ccc34)CC1)CC2=O (centres undefined)	1.16	-7.34	-5.79	
O=C1CC(CN2CCC(c3noc4cc(F)ccc34)CC2)Cc2ccccc21 (centres undefined)	1.18	-8.57	-6.89	
O=C1CC(CCN2CCC3(CC2)NCNC3=O)Cc2ccccc21 (centres undefined)		< -5	< -5	< -5
O=C1CC(CCN2CCN(c3ccccn3)CC2)Cc2ccccc21 (centres undefined)		-6.54	< -5	< -5
O=C1CC(CCN2CCC(c3noc4cc(F)ccc34)CC2)Cc2ccccc21 (centres undefined)	1.38	-8.29	-7.06	-5.98
O=C1NC(=O)C2(CCN(CCC3CC(=O)c4ccccc4C3)CC2)N1 (centres undefined)		-6.15	-7.05	< -5
O=C(CCCN1CCC(O)(c2ccc(Cl)cc2)CC1)c1ccc(F)cc1 [HALOPERIDOL]				-9.22
